Structures can show the parent of a compound that is named as a salt.
Tests used:
HIV-1 RT [1] = target: T1, HIV-1 RT (Human immunodeficiency virus type 1 group M subtype B, UniProt P03366); experiment: Heteropolymer HIV Reverse Transcriptase Assay: Inhibitor IC50 Determination; assay type: biochemical; conditions: purified recombinant enzyme, poly(rA)/oligo(dT)16 template-primer, 4 nM HIV-1 RT, 37° C. 30 min; TABLE 2
Description: HIV-1 RT assay was carried out in 96-well Millipore MultiScreen MADVNOB50 plates using purified recombinant enzyme and a poly(rA)/oligo(dT)16 template-primer in a total volume of 50 μL. The assay constituents were 50 mM Tris/HCl, 50 mM NaCl, 1 mM EDTA, 6 mM MgCl2, 5 μM dTTP, 0.15 μCi [^3H] dTTP, 5 μg/ml poly (rA) pre annealed to 2.5 μg/ml oligo (dT)16 and a range of inhibitor concentrations in a final concentration of 10% DMSO. Reactions were initiated by adding 4 nM HIV-1 RT and after incubation at 37° C. for 30 min, they were stopped by the addition of 50 μl ice cold 20% TCA and allowed to precipitate at 4° C. for 30 min. The precipitates were collected by applying vacuum to the plate and sequentially washing with 3×200 μl of 10% TCA and 2×200 μl 70% ethanol. Finally, the plates were dried and radioactivity counted in a Packard TopCounter after the addition of 25 μl scintillation fluid per well. IC50's were calculated by plotting % inhibition versus log10 inhibitor concentrations.

HIV-1 RT [2] = target: T1, HIV-1 RT; experiment: Homopolymer HIV Reverse Transcriptase Assay: Inhibitor IC50 Determination; assay type: biochemical; conditions: purified recombinant enzyme, poly(rA)/oligo(dT)16 template-primer, 5 nM HIV-1 RT, 37° C. 30 min; TABLE 3
Description: HIV-1 RT assay was carried out in 96-well Millipore filtermat NOB50 plates using purified recombinant enzyme and a poly(rA)/oligo(dT)16 template-primer in a total volume of 50 μL. The assay constituents were 50 mM Tris/HCl, 50 mM NaCl, 1 mM EDTA, 6 mM MgCl2, 5 μM dTTP, 0.1 μCi [^3H] dTTP, 5 μg/ml poly (rA) pre annealed to 2.5 μg/ml oligo (dT)16 and a range of inhibitor concentrations in a final concentration of 10% DMSO. Reactions were initiated by adding 5 nM HIV-1 RT and after incubation at 37° C. for 30 min, they were stopped by the addition of 50 μl ice cold 20% TCA and allowed to precipitate at 4° C. for 30 min. The precipitates were collected by applying vacuum to the plate and sequentially washing with 2×200 μl of 10% TCA and 2×200 μl 70% ethanol. Finally the plates were dried and radioactivity counted in a Wallac Microbeta 1450 after the addition of 15 μL scintillation fluid per well. IC50's (TABLE 3) were calculated by plotting % inhibition versus log10 inhibitor concentrations.

SMILES	melting point [°C]	IC50 (HIV-1 RT [1]) [nM]	IC50 (HIV-1 RT [2]) [nM]
N#Cc1cc(Oc2c(Br)ccc(Cc3n[nH]c4ncccc34)c2F)cc(C(F)F)c1	192 to 194.4	–	–
N#Cc1cc(Cl)cc(Oc2c(C3CC3)ccc(Cc3n[nH]c4ncccc34)c2F)c1	215 to 216.8	–	–
N#Cc1cc(Cl)cc(Oc2c(Cl)ccc(Cc3cc(-c4ccccc4)[nH]n3)c2F)c1	148 to 150.1	–	–
N#Cc1cc(Cl)cc(Oc2c(Br)ccc(Cc3n[nH]c4nc(Cl)ncc34)c2F)c1 [Compound I-13, 3-[6-Bromo-3-(6-chloro-1H-pyrazolo[3,4-d]pyrimidin-3-ylmethyl)-2-fluoro-phenoxy]-5-chloro-benzonitrile]	216 to 217.9	8.6	–
N#Cc1cc(Cl)cc(Oc2c(Br)ccc(Cc3n[nH]c4nnccc34)c2F)c1	237.6 to 240.8	–	–
Cn1nc(Cc2ccc(Br)c(Oc3cc(Cl)cc(C#N)c3)c2F)c2cccnc21	138.6 to 142.6	–	–
Cc1cc(C#N)cc(Oc2c(Cl)ccc(Cc3n[nH]c4nnccc34)c2F)c1	200 to 202.9	–	–
N#Cc1cc(Cl)cc(Oc2c(Br)ccc(Cc3n[nH]c4ncccc34)c2F)c1 [Compound I-7, 3-[6-Bromo-2-fluoro-3-(1H-pyrazolo[3,4-b]pyridin-3-ylmethyl)-phenoxy]-5-chloro-benzonitrile]	242 to 243	7.6	–
N#Cc1cc(Cl)cc(Oc2c(Br)ccc(Cc3n[nH]c4c([N+](=O)[O-])cccc34)c2F)c1	214.2 to 216	–	–
COc1ccc2c(Cc3ccc(Br)c(Oc4cc(Cl)cc(C#N)c4)c3F)n[nH]c2n1	223.8 to 225	–	–
N#Cc1cc(Cl)cc(Oc2c(C(F)F)ccc(Cc3n[nH]c4nnccc34)c2F)c1	177.5 to 178.2	–	–
N#Cc1cc(Cl)cc(Oc2c(Br)ccc(Cc3n[nH]c4ncc(F)cc34)c2F)c1	206.5 to 209	–	–
N#Cc1cc(Oc2c(Br)ccc(Cc3n[nH]c4ccccc34)c2F)cc(C(F)F)c1 [Compound I-6, 3-[6-Bromo-2-fluoro-3-(1H-indazol-3-ylmethyl)-phenoxy]-5-difluoromethyl-benzonitrile]	–	11.8	–
N#Cc1cc(Cl)cc(Oc2c(Br)ccc(Cc3n[nH]c4c(N)cccc34)c2F)c1	179.9 to 181.3	–	–
N#Cc1cc(Cl)cc(Oc2c(Br)ccc(Cc3n[nH]c4c(C#N)cccc34)c2F)c1	250 to 251.1	–	–
N#Cc1cc(Oc2c(Cl)ccc(Cc3n[nH]c4ncccc34)c2F)cc(C(F)F)c1 [Compound I-28, 3-[6-Chloro-2-fluoro-3-(1H-pyrazolo[3,4-b]pyridin-3-ylmethyl)-phenoxy]-5-difluoromethyl-benzonitrile]	198 to 199	3.7	–
CS(=O)(=O)Nc1cccc2c(Cc3ccc(Br)c(Oc4cc(Cl)cc(C#N)c4)c3F)n[nH]c12	234 to 236	–	–
N#Cc1cc(Cl)cc(Oc2c(Br)ccc(Cc3n[nH]c4ccncc34)c2F)c1	216 to 218.5	–	–
N#Cc1cc(Cl)cc(Oc2c(Cl)ccc(Cc3n[nH]c4ccccc34)c2F)c1 [Compound I-3, 3-Chloro-5-[6-chloro-2-fluoro-3-(1H-indazol-3-ylmethyl)-phenoxy]-benzonitrile]	163.3 to 163.7	–	52

SMILES	melting point [°C]	IC50 (HIV-1 RT [1]) [nM]	IC50 (HIV-1 RT [2]) [nM]
N#Cc1cc(Cl)cc(Oc2c(Cl)ccc(Cc3n[nH]c4nnccc34)c2F)c1 [Compound I-11, 3-Chloro-5-[6-chloro-2-fluoro-3-(1H-pyrazolo[3,4-c]pyridazin-3-ylmethyl)-phenoxy]-benzonitrile]	–	1	–
CS(=O)(=O)c1ccc(Cc2n[nH]c3nnccc23)c(F)c1Oc1cc(Cl)cc(C#N)c1	239.5 to 240.7	–	–
N#Cc1cc(C#N)cc(Oc2c(Cl)ccc(Cc3n[nH]c4nnccc34)c2F)c1	222.8 to 224.7	–	–
Cc1ccc(Cc2n[nH]c3ncccc23)c(F)c1Oc1cc(Cl)cc(C#N)c1	215 to 218.8	–	–
N#Cc1cc(Cl)cc(Oc2c(Br)ccc(Cc3n[nH]c4nc(Cl)ccc34)c2F)c1	212.3 to 214	–	–
N#Cc1cc(Cl)cc(Oc2c(Br)ccc(Cc3n[nH]c4nccnc34)c2F)c1	204 to 205	–	–
N#Cc1cc(Cl)cc(Oc2c(Cl)ccc(Cc3n[nH]c4ncccc34)c2F)c1	210 to 215.5	–	–
N#Cc1cc(Cl)cc(Oc2c(Br)ccc(Cc3n[nH]c4ncncc34)c2F)c1	215 to 218	–	–
Cc1ccc(Cc2n[nH]c3ncccc23)c(F)c1Oc1cc(C#N)cc(C(F)F)c1	212.5 to 214.4	–	–
N#Cc1cc(Cl)cc(Oc2c(Br)ccc(Cc3n[nH]c4cnccc34)c2F)c1	182 to 186.9	–	–
Cn1c(=O)ccc2c(Cc3ccc(Br)c(Oc4cc(Cl)cc(C#N)c4)c3F)n[nH]c21 [Compound I-48, 3-[6-Bromo-2-fluoro-3-(7-methyl-6-oxo-6,7-dihydro-1H-pyrazolo[3,4-b]pyridin-3-ylmethyl)-phenoxy]-5-chloro-benzonitrile, TFA salt]	–	0.9	–
CCc1ccc(Cc2n[nH]c3ncccc23)c(F)c1Oc1cc(Cl)cc(C#N)c1	205 to 206.9	–	–
CN1CCc2c(Cc3ccc(Br)c(Oc4cc(Cl)cc(C#N)c4)c3F)n[nH]c2C1=O	235.5 to 237.1	–	–
N#Cc1cc(Oc2c(Br)ccc(Cc3cc(-c4ccccc4)[nH]n3)c2F)cc(C(F)F)c1 [Compound I-5, 3-[6-Bromo-2-fluoro-3-(5-phenyl-1H-pyrazol-3-ylmethyl)-phenoxy]-5-difluoromethyl-benzonitrile]	78.3 to 90.1	–	55
N#Cc1cc(C#N)cc(Oc2c(C3CC3)ccc(Cc3n[nH]c4ncccc34)c2F)c1	221 to 223.6	–	–
COc1ccc(Cc2n[nH]c3ncccc23)c(F)c1Oc1cc(C#N)cc(C(F)F)c1	197.9 to 201.9	–	–
N#Cc1cc(Oc2c(Br)ccc(Cc3n[nH]c4cnccc34)c2F)cc(C(F)F)c1	166 to 166.9	–	–
N#Cc1cc(C#N)cc(Oc2c(Br)ccc(Cc3n[nH]c4ncccc34)c2F)c1 [Compound I-16, 5-[6-Bromo-2-fluoro-3-(1H-pyrazolo[3,4-b]pyridin-3-ylmethyl)-phenoxy]-isophthalonitrile]	230 to 232.9	3.3	–
